{
  "source": "paper PMC7486443",
  "about": "“Generation of Phenothiazine with Potent Anti-TLK1 Activity for Prostate Cancer Therapy” (iScience, 2020)",
  "experiment_in_all_cases": "biochemical",
  "parameters_in_all_cases": "DiscoverX KINOMEscan scanMAX competition binding panel, single concentration, percent of control; remaining binding: dose or concentration left out as unconfirmed",
  "conditions_in_all_cases": "KINOMEscan binding, percent of control; read-out: Table S4_SCANMAX REPORT - related to Fig. 1 / Percent Control",
  "key": {"INSR": {"biological_target": "INSR (Homo sapiens, UniProt P06213)", "sequence (P06213 whole entry)": "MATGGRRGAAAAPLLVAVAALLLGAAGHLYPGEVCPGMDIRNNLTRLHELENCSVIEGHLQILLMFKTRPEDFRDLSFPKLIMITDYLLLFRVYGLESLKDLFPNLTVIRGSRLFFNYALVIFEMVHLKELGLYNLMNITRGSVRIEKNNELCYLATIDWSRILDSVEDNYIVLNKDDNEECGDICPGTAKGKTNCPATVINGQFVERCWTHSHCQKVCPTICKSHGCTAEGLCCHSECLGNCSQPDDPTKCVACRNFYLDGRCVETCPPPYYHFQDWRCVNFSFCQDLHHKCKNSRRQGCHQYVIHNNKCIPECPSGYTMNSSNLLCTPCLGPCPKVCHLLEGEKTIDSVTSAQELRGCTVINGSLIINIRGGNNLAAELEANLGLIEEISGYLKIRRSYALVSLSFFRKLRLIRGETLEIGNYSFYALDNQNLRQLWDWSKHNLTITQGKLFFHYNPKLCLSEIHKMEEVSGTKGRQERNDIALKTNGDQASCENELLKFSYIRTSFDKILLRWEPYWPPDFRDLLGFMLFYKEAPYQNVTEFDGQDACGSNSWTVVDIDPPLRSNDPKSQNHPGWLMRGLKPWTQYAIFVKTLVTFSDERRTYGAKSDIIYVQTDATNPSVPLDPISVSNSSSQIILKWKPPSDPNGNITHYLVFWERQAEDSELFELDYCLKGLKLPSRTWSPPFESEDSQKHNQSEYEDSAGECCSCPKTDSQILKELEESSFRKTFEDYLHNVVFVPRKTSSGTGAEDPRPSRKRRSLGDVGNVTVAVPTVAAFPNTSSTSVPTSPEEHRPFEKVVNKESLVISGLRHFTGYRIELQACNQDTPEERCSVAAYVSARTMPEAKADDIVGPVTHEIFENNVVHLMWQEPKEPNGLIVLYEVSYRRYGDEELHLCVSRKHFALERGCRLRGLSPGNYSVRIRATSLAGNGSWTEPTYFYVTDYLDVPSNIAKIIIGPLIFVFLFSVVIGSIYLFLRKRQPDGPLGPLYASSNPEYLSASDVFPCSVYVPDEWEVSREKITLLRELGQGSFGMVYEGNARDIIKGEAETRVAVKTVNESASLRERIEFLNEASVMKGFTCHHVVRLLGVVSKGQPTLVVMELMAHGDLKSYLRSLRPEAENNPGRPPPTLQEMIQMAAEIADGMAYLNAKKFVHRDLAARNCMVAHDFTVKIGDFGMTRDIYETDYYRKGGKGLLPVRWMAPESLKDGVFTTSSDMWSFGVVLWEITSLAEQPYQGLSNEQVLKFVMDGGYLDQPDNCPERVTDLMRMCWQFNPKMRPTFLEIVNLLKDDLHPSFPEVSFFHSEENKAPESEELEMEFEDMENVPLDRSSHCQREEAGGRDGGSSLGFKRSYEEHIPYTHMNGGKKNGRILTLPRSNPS", "description": "(§1) Certain PTH are potent inhibitors of TLK1 ([Ronald et al., 2013]), and by inference TLK2, as these proteins must homo- and hetero-dimerize for full activation ([Mortuza et al., 2018]), in addition to being highly similar in sequence and structure, and thus similarly targetable. […] Two noteworthy observations are that PTHs are structurally different from many known ATP competitive inhibitors, and that J54 was carefully designed based on considerations reported previously for the THD—the Kinomescan has confirmed that J54 is specific to TLKs. We should point out that although PTH were the first reported inhibitors of TLKs ([Ronald et al., 2013]), other inhibitors particularly of TLK2 have since been reported ([Kim et al., 2016]), some based on structure docking ([Mortuza et al., 2018]), although neither their potency and effects in vivo nor their potential off-target effects have not been reported as they were selected from libraries of kinase inhibitors. Supplementary file mmc2.xlsx: Table S4. SCANMAX Table, Related to Figure 1 Kinomescan of J54 inhibitory activity on human kinases."}, "MST2": {"biological_target": "T1, MST2 (Homo sapiens, UniProt Q13188)", "T1 construct": "gene STK3", "description": "as §1"}, "CDK11": {"biological_target": "T2, CDK11 (Homo sapiens, UniProt Q9BWU1)", "T2 construct": "gene CDK19", "description": "as §1"}, "MST1": {"biological_target": "T3, MST1 (Homo sapiens, UniProt Q13043)", "T3 construct": "gene STK4", "description": "as §1"}, "EGFR(L861Q)": {"biological_target": "EGFR(L861Q) (Homo sapiens, UniProt P00533, L861Q)", "description": "as §1"}, "MYLK": {"biological_target": "MYLK (Homo sapiens, UniProt Q15746)", "description": "as §1"}, "KIT-autoinhibited": {"biological_target": "KIT-autoinhibited (Homo sapiens, UniProt P10721)", "description": "as §1"}, "PKAC-beta": {"biological_target": "T4, PKAC-beta (Homo sapiens, UniProt P22694)", "T4 construct": "gene PRKACB", "description": "as §1"}, "WEE2": {"biological_target": "WEE2 (Homo sapiens, UniProt P0C1S8)", "sequence (P0C1S8 whole entry)": "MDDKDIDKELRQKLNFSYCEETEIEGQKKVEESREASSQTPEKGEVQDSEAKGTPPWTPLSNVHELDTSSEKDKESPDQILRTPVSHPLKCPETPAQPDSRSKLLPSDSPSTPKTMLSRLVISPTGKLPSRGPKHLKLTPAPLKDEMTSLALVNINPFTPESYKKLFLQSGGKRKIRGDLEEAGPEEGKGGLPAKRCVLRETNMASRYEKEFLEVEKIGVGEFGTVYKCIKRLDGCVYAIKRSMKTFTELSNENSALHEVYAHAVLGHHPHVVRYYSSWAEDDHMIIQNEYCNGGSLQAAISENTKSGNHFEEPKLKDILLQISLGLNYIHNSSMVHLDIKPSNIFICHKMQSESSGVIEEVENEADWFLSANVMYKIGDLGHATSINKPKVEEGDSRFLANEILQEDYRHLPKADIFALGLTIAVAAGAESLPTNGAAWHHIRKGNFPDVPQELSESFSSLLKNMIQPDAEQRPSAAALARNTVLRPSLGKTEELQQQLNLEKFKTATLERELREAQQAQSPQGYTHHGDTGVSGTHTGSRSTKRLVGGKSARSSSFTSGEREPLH", "description": "as §1"}, "ULK3": {"biological_target": "ULK3 (Homo sapiens, UniProt Q6PHR2)", "sequence (Q6PHR2 whole entry)": "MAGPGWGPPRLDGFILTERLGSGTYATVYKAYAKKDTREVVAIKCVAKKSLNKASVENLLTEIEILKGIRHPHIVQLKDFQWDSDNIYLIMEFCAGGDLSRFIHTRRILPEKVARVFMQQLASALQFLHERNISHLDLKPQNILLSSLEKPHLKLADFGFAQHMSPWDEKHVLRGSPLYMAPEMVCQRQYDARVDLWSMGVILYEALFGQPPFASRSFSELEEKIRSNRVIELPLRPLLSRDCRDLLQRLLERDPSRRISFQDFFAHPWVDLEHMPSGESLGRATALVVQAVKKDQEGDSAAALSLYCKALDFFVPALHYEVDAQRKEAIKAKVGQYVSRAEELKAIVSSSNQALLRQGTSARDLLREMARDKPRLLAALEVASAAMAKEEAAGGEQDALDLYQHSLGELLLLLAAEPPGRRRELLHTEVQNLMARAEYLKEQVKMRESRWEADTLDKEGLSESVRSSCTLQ", "description": "as §1"}, "PIP5K2C": {"biological_target": "T5, PIP5K2C (Homo sapiens, UniProt Q8TBX8)", "T5 construct": "gene PIP4K2C", "description": "as §1"}, "LATS2": {"biological_target": "LATS2 (Homo sapiens, UniProt Q9NRM7)", "sequence (Q9NRM7 whole entry)": "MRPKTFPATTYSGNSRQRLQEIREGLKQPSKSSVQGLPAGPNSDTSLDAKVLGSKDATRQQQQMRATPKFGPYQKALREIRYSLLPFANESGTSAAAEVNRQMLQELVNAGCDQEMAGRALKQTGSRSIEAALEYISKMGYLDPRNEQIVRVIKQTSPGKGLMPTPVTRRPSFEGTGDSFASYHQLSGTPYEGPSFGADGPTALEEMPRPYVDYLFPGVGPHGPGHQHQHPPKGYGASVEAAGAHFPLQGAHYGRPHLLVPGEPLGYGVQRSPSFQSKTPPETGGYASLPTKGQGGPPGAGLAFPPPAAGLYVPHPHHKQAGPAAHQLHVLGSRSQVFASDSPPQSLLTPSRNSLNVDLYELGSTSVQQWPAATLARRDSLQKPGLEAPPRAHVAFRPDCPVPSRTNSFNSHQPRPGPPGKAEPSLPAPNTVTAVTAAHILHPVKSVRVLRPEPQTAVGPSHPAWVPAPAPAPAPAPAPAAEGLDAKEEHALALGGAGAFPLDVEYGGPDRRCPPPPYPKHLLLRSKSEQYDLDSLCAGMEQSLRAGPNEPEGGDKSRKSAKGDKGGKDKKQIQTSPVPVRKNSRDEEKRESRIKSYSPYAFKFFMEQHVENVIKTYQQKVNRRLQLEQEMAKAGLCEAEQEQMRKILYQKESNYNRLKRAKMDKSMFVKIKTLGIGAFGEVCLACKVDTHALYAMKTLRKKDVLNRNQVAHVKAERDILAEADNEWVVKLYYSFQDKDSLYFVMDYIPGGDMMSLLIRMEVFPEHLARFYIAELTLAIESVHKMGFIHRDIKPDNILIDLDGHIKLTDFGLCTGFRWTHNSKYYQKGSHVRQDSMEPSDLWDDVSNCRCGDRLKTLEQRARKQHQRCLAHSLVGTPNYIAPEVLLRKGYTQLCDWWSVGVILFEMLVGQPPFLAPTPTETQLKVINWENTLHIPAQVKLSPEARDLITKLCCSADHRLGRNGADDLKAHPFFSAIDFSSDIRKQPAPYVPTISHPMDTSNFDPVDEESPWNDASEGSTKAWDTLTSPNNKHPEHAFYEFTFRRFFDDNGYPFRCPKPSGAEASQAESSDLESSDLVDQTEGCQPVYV", "description": "as §1"}, "MYO3B": {"biological_target": "MYO3B (Homo sapiens, UniProt Q8WXR4)", "sequence (Q8WXR4 whole entry)": "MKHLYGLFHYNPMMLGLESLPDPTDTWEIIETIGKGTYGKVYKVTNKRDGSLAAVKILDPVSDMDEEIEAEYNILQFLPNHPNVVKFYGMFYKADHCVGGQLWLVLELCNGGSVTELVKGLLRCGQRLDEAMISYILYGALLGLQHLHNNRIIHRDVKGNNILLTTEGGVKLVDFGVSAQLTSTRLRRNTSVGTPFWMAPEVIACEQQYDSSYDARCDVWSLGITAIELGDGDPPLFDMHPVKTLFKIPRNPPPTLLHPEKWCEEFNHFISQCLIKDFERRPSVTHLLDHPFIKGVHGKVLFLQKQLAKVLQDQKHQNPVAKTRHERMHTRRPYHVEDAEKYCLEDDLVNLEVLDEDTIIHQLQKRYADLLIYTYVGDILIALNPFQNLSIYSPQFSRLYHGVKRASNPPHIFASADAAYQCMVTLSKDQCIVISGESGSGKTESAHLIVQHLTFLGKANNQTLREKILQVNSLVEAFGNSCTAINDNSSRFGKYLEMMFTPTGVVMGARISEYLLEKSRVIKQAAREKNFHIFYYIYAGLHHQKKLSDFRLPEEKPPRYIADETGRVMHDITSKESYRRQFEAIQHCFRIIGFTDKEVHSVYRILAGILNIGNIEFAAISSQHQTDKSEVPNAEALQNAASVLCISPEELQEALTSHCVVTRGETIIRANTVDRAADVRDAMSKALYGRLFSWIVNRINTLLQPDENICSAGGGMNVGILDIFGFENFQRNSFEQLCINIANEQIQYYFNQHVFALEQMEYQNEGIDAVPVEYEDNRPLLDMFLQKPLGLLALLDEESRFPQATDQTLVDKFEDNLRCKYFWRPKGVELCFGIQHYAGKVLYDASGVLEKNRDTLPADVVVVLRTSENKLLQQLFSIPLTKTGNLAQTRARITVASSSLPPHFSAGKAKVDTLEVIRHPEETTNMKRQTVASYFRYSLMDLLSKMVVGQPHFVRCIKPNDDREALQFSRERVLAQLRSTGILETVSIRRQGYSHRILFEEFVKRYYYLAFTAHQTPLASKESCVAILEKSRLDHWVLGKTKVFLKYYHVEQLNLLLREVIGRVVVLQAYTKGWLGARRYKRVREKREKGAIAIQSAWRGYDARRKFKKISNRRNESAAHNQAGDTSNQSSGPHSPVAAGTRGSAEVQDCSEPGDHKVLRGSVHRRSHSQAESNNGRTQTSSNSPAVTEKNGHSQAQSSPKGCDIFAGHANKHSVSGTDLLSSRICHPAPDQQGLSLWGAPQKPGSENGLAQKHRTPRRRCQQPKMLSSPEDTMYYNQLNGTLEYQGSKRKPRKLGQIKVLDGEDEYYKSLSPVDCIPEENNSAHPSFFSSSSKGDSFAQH", "description": "as §1"}, "PAK7": {"biological_target": "T6, PAK7 (Homo sapiens, UniProt Q9P286)", "T6 construct": "gene PAK5", "description": "as §1"}, "[1]": {"biological_target": "T7, RPS6KA4(Kin.Dom.2-C-terminal) (Homo sapiens, UniProt O75676)", "T7 construct": "Kin.Dom.2-C-terminal", "description": "as §1"}, "PIK3CA(E545K)": {"biological_target": "PIK3CA(E545K) (Homo sapiens, UniProt P42336, E545K)", "description": "as §1"}, "PIM2": {"biological_target": "PIM2 (Homo sapiens, UniProt Q9P1W9)", "description": "as §1"}, "KIT(A829P)": {"biological_target": "KIT(A829P) (Homo sapiens, UniProt P10721, A829P)", "description": "as §1"}},
  "data": [
    {"smiles": "c1ccc2c(c1)Sc1ccccc1N2CCN1CCOCC1", "note": "[J54]", "values": [
      {"measurement": "remaining binding", "setting": "INSR", "value": 68, "unit": "%"},
      {"measurement": "remaining binding", "setting": "MST2", "value": 100, "unit": "%"},
      {"measurement": "remaining binding", "setting": "CDK11", "value": 81, "unit": "%"},
      {"measurement": "remaining binding", "setting": "MST1", "value": 100, "unit": "%"},
      {"measurement": "remaining binding", "setting": "EGFR(L861Q)", "value": 94, "unit": "%"},
      {"measurement": "remaining binding", "setting": "MYLK", "value": 97, "unit": "%"},
      {"measurement": "remaining binding", "setting": "KIT-autoinhibited", "value": 100, "unit": "%"},
      {"measurement": "remaining binding", "setting": "PKAC-beta", "value": 86, "unit": "%"},
      {"measurement": "remaining binding", "setting": "WEE2", "value": 100, "unit": "%"},
      {"measurement": "remaining binding", "setting": "ULK3", "value": 79, "unit": "%"},
      {"measurement": "remaining binding", "setting": "PIP5K2C", "value": 100, "unit": "%"},
      {"measurement": "remaining binding", "setting": "LATS2", "value": 90, "unit": "%"},
      {"measurement": "remaining binding", "setting": "MYO3B", "value": 100, "unit": "%"},
      {"measurement": "remaining binding", "setting": "PAK7", "value": 100, "unit": "%"},
      {"measurement": "remaining binding", "setting": "[1]", "value": 94, "unit": "%"},
      {"measurement": "remaining binding", "setting": "PIK3CA(E545K)", "value": 100, "unit": "%"},
      {"measurement": "remaining binding", "setting": "PIM2", "value": 42, "unit": "%"},
      {"measurement": "remaining binding", "setting": "KIT(A829P)", "value": 94, "unit": "%"}
    ]}
  ]
}
